This note sets out measurements from patent US6569411B2, “Serine carbonates” (The Gillette Company, priority 1999, dated 2003).

Series [1] relates to Staphylococcus haemolyticus cells. The experiment in a line: Gas chromatography assay of cleavage of serine carbonates by axilla bacteria. It is filed as cell-based. The settings on record: 350 nmol of compound, 16-18 hours at 37° C. As for the experimental part:
This example is meant to illustrate, not to limit, the invention.
The synthesized amino acid derivatives were tested for their ability to be cleaved by bacteria normally found in human axilla. A 100 ml culture of Staphylococcus haemolyticus was grown overnight at 37° C. in TSB medium.
The cells were pelleted by centrifuging the culture at 5,000 rpm for 12 minutes, and the pelleted cells were resuspended in sterile saline. The cells were again pelleted and resuspended in sterile saline. After pelleting the cells once again, the cells were weighed and resuspended in sterile assay buffer (50 mM phosphate, pH 6.8, 1% glucose/dextran). The final concentration of cells was 0.05 g cells/ml (for the gas chromatography (GC) assay). These cell suspensions can be stored at 4° C.
The serine carbonate was prepared as stock solution at a concentration of approximately 5 mg/ml in 50 mM potassium phosphate buffer (pH 6.8). If necessary, the pH can be adjusted to 6.8-7.0 with 1N NaOH. The serine carbonate stock solution was sterilized by filtering through 0.22 μm filters.
For a negative control, the cells were incubated with 100 μl sterile phosphate buffer. […] The samples then were extracted into 100 μl chloroform and analyzed by gas chromatography.

Series [2] has the same test system. The experiment in a line: Sniff assay: malodor inhibition and fragrance production with axillary malodor precursors. It is filed as cell-based. The settings on record: 0.1% compound with malodor precursors and cells at 37° C., seven judges, 8-point scale. Here is the method: The serine carbonate 2-Amino-3-(1,5,7-trimethyl-octyl-oxycarbonyloxy)-propionic acid has been tested in a sniff assay to determine whether, in the presence of Staphylococcus haemolyticus and axillary malodor precursors, production of malodor is inhibited and production of fragrance can be detected. For this assay, axillary washes, which contain malodor precursors, were dried into vials at a concentration sufficient to produce a strong axillary malodor when incubated with Staphylococcus haemolyticus cells. Vials were incubated at 37° C. with Staphylococcus haemolyticus cells. The vials contained […] with 0.1% 2-amino-3-(1,5,7-trimethyl-octyl-oxycarbonyloxy)-propionic acid. Control precursor vials were not incubated with the cells. The mixtures were extracted with chloroform and about 10 μl of the chloroform layers were spotted on bibulous paper. After the chloroform had evaporated, the papers were evaluated for malodor level and fragrance level. Evaluations were done by seven judges who rated malodor or fragrance strength on an 8-point scale from 0 (none) to 7 (extremely strong). Results were calculated as percent change from control malodor or precursor fragrance score.

Molecules are shown by their SMILES.

In general, melting point refers to the temperature, or range, at which the solid turns liquid.

Regarding `CC(CCOC(=O)OCC(N)C(=O)O)CCc1ccccc1` (centres unmarked) [Example 3e, 2-Amino-3-(3-methyl-5-phenyl-pentyloxycarbonyloxy)-propionic acid], the “precursor cleaved by the cells” value in series [1] is on record as 40%. For the same molecule, the “3-methyl-5-phenyl-pentanol produced by the cell incubation” value in series [1] (pH 6.8, GC analysis) is recorded as 140 nmols.

`CC(C)CC(C)CCCC(C)OC(=O)OCC(N)C(=O)O` (centres unmarked) [Example 3a, 2-Amino-3-(1,5,7-trimethyl-octyloxycarbonyloxy)-propionic acid] showed a Malodor drop in series [2] (percent change from control malodor score) of 50%. The same molecule registered a Fragrance increase in series [2] (percent change from control precursor fragrance score) of 30%.

`CC(C)CCCC(C)C1CCC2C3CC=C4CC(OC(=O)OCC(N)C(=O)O)CCC4(C)C3CCC12C` (centres unmarked) came in with a melting point of 147 °C.
